Measured values: PubChem BioAssay AID1919000 (Molecular Pharmacology Branch, DTP, NCI, 2023)

Test system: 653999-131-R-J2-PDC complex spheroids, growth % test/control
Assay: Anticancer human tumor 653999-131-R-J2-PDC patient-derived lung adenocarcinoma cell line growth inhibition [AhR]
Conditions: for IC50: curve of first compound; for viability, T/C: stronger effect = lower value
Method in brief: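 Agents were dosed in half-log steps down from roughly clinical Cmax, or from 10 microM where Cmax was unknown, alone and with AhR antagonists. Read-out: percent test/control growth of tumor spheroids containing HUVEC and MSC stromal cells.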

[1] = second compound 0.1 µM, first compound 0.0316 µM
[2] = second compound 0.1 µM, first compound 0.1 µM
[3] = second compound 0.1 µM, first compound 0.316 µM
[4] = second compound 0.1 µM, first compound 1 µM
[5] = second compound 0.1 µM, first compound 3.16 µM
[6] = second compound 0.1 µM, first compound 10 µM
[7] = second compound 0.316 µM, first compound 0.0316 µM
[8] = second compound 0.316 µM, first compound 0.1 µM
[9] = second compound 0.316 µM, first compound 0.316 µM
[10] = second compound 0.316 µM, first compound 1 µM
[11] = second compound 0.316 µM, first compound 3.16 µM
[12] = second compound 0.316 µM, first compound 10 µM
[13] = second compound 1 µM, first compound 0.0316 µM
[14] = second compound 1 µM, first compound 0.1 µM
[15] = second compound 1 µM, first compound 0.316 µM
[16] = second compound 1 µM, first compound 1 µM
[17] = second compound 1 µM, first compound 3.16 µM
[18] = second compound 1 µM, first compound 10 µM
[19] = second compound 3.16 µM, first compound 0.0316 µM
[20] = second compound 3.16 µM, first compound 0.1 µM
[21] = second compound 3.16 µM, first compound 0.316 µM
[22] = second compound 3.16 µM, first compound 1 µM
[23] = second compound 3.16 µM, first compound 3.16 µM
[24] = second compound 3.16 µM, first compound 10 µM
[25] = second compound 10 µM, first compound 0.0316 µM
[26] = second compound 10 µM, first compound 0.1 µM
[27] = second compound 10 µM, first compound 0.316 µM
[28] = second compound 10 µM, first compound 1 µM
[29] = second compound 10 µM, first compound 3.16 µM
[30] = second compound 10 µM, first compound 10 µM
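Further: spheroids exposed to agents for seven days.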
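Wherever viability, T/C is given: 100% = DMSO vehicle control viability.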

Compound: COc1cc(Nc2ncc3c(n2)-c2ccc(Cl)cc2C(c2c(F)cccc2OC)=NC3)ccc1C(=O)O + Cc1cncc(-c2nc(NCCc3c[nH]c4ccccc34)c3ncn(C(C)C)c3n2)c1
- IC50 (second compound 0.1 µM): > 10 µM
- IC50 (second compound 0.316 µM): > 10 µM
- IC50 (second compound 1 µM): > 10 µM
- IC50 (second compound 3.16 µM): > 10 µM
- IC50 (second compound 10 µM): > 10 µM
- viability, T/C [1]: 82.1%
- viability, T/C [2]: 75.4%
- viability, T/C [3]: 66.3%
- viability, T/C [4]: 63.3%
- viability, T/C [5]: 58.3%
- viability, T/C [6]: 55.5%
- viability, T/C [7]: 78.7%
- viability, T/C [8]: 67.7%
- viability, T/C [9]: 66.6%
- viability, T/C [10]: 63.2%
- viability, T/C [11]: 60.6%
- viability, T/C [12]: 54.4%
- viability, T/C [13]: 91%
- viability, T/C [14]: 78.6%
- viability, T/C [15]: 80%
- viability, T/C [16]: 68.2%
- viability, T/C [17]: 61.9%
- viability, T/C [18]: 57.8%
- viability, T/C [19]: 96.7%
- viability, T/C [20]: 86.4%
- viability, T/C [21]: 78.6%
- viability, T/C [22]: 73.4%
- viability, T/C [23]: 73.1%
- viability, T/C [24]: 64.7%
- viability, T/C [25]: 65.5%
- viability, T/C [26]: 49.9%
- viability, T/C [27]: 57.9%
- viability, T/C [28]: 49.9%
- viability, T/C [29]: 55.5%
- viability, T/C [30]: 64.4%

Compound: Cn1ncnc1C1c2n[nH]c(=O)c3cc(F)cc(c23)NC1c1ccc(F)cc1 (stereo not given) + Cc1cncc(-c2nc(NCCc3c[nH]c4ccccc34)c3ncn(C(C)C)c3n2)c1
- IC50 (second compound 0.1 µM): > 0.1 µM
- IC50 (second compound 0.316 µM): > 0.1 µM
- IC50 (second compound 1 µM): > 0.1 µM
- IC50 (second compound 3.16 µM): > 0.1 µM
- IC50 (second compound 10 µM): > 0.1 µM
- viability, T/C (second compound 0.1 µM, first compound 0.000316 µM): 96%
- viability, T/C (second compound 0.1 µM, first compound 0.001 µM): 96.2%
- viability, T/C (second compound 0.1 µM, first compound 0.00316 µM): 97.4%
- viability, T/C (second compound 0.1 µM, first compound 0.01 µM): 84.8%
- viability, T/C [1]: 86.6%
- viability, T/C [2]: 85.6%
- viability, T/C (second compound 0.316 µM, first compound 0.000316 µM): 97.9%
- viability, T/C (second compound 0.316 µM, first compound 0.001 µM): 92.5%
- viability, T/C (second compound 0.316 µM, first compound 0.00316 µM): 94.3%
- viability, T/C (second compound 0.316 µM, first compound 0.01 µM): 90.6%
- viability, T/C [7]: 85.6%
- viability, T/C [8]: 86.5%
- viability, T/C (second compound 1 µM, first compound 0.000316 µM): 104%
- viability, T/C (second compound 1 µM, first compound 0.001 µM): 113%
- viability, T/C (second compound 1 µM, first compound 0.00316 µM): 104%
- viability, T/C (second compound 1 µM, first compound 0.01 µM): 101%
- viability, T/C [13]: 103%
- viability, T/C [14]: 94%
- viability, T/C (second compound 3.16 µM, first compound 0.000316 µM): 122%
- viability, T/C (second compound 3.16 µM, first compound 0.001 µM): 99.5%
- viability, T/C (second compound 3.16 µM, first compound 0.00316 µM): 104%
- viability, T/C (second compound 3.16 µM, first compound 0.01 µM): 93.7%
- viability, T/C [19]: 100%
- viability, T/C [20]: 98.2%
- viability, T/C (second compound 10 µM, first compound 0.000316 µM): 52.4%
- viability, T/C (second compound 10 µM, first compound 0.001 µM): 55.5%
- viability, T/C (second compound 10 µM, first compound 0.00316 µM): 62%
- viability, T/C (second compound 10 µM, first compound 0.01 µM): 56%
- viability, T/C [25]: 47.5%
- viability, T/C [26]: 58.3%

Compound: NS(=O)(=O)OCC1CC(n2ccc3c(NC4CCc5ccccc54)ncnc32)CC1O (stereo not given) + Cc1cncc(-c2nc(NCCc3c[nH]c4ccccc34)c3ncn(C(C)C)c3n2)c1
- IC50 (second compound 0.1 µM): 6.2 µM
- IC50 (second compound 0.316 µM): 1.78 µM
- IC50 (second compound 1 µM): > 10 µM
- IC50 (second compound 3.16 µM): 0.948 µM
- IC50 (second compound 10 µM): < 0.0316 µM
- viability, T/C [1]: 108%
- viability, T/C [2]: 106%
- viability, T/C [3]: 101%
- viability, T/C [4]: 71.4%
- viability, T/C [5]: 50.4%
- viability, T/C [6]: 49.8%
- viability, T/C [7]: 113%
- viability, T/C [8]: 112%
- viability, T/C [9]: 106%
- viability, T/C [10]: 52.2%
- viability, T/C [11]: 48.4%
- viability, T/C [12]: 47.2%
- viability, T/C [13]: 112%
- viability, T/C [14]: 120%
- viability, T/C [15]: 108%
- viability, T/C [16]: 49.3%
- viability, T/C [17]: 50.5%
- viability, T/C [18]: 51.2%
- viability, T/C [19]: 117%
- viability, T/C [20]: 104%
- viability, T/C [21]: 90.5%
- viability, T/C [22]: 46.8%
- viability, T/C [23]: 40.5%
- viability, T/C [24]: 43.3%
- viability, T/C [25]: 44.4%
- viability, T/C [26]: 38%
- viability, T/C [27]: 39.4%
- viability, T/C [28]: 22.3%
- viability, T/C [29]: 18.5%
- viability, T/C [30]: 19.4%

Compound: O=C(C=Cc1cccc(S(=O)(=O)Nc2ccccc2)c1)NO + Cc1cncc(-c2nc(NCCc3c[nH]c4ccccc34)c3ncn(C(C)C)c3n2)c1
- IC50 (second compound 0.1 µM): 2.99 µM
- IC50 (second compound 0.316 µM): 3.32 µM
- IC50 (second compound 1 µM): 3.3 µM
- IC50 (second compound 3.16 µM): 3.48 µM
- IC50 (second compound 10 µM): 1.46 µM
- viability, T/C [1]: 91.4%
- viability, T/C [2]: 96.3%
- viability, T/C [3]: 88%
- viability, T/C [4]: 74.5%
- viability, T/C [5]: 49.2%
- viability, T/C [6]: 10.7%
- viability, T/C [7]: 94.1%
- viability, T/C [8]: 96.7%
- viability, T/C [9]: 89%
- viability, T/C [10]: 76.5%
- viability, T/C [11]: 52.2%
- viability, T/C [12]: 10.6%
- viability, T/C [13]: 95.8%
- viability, T/C [14]: 104%
- viability, T/C [15]: 98.3%
- viability, T/C [16]: 91.2%
- viability, T/C [17]: 51.6%
- viability, T/C [18]: 9.38%
- viability, T/C [19]: 104%
- viability, T/C [20]: 99.5%
- viability, T/C [21]: 95.1%
- viability, T/C [22]: 79.3%
- viability, T/C [23]: 53.7%
- viability, T/C [24]: 11.8%
- viability, T/C [25]: 54.7%
- viability, T/C [26]: 50.4%
- viability, T/C [27]: 50.4%
- viability, T/C [28]: 51.7%
- viability, T/C [29]: 46.9%
- viability, T/C [30]: 8.52%
